Test results reported in PubChem BioAssay (NCI).
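Compound exposure: 48 hours, 5 concentrations, 96-well plates. GI50 marks 50% less growth. At the TGI there is no net growth.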 Where a SMILES comes first, the peptide text is derived from it. [ ]: non-standard residue; d: D form. The star is where a group is joined. X28 = COC1=CC(=O)N(C(=O)[C@@H](O*)C(C)C)[C@H]1Cc1ccccc1; Bn2Val = CC(C)[C@@H](C(=O)*)N(Cc1ccccc1)Cc1ccccc1; NMeV = CN[C@H](C(=O)O)C(C)C; dNMeA = CN[C@H](C)C(=O)O

How the values were obtained:
Assay in all cases: DTP human tumour cell line panel, 48 h
[1] = system: HL-60(TB) leukemia
[2] = system: NCI-H522 lung
[3] = system: HOP-62 NSCLC
[4] = system: DU-145 prostate
[5] = system: SNB-19 CNS
[6] = system: HS 578T breast
[7] = system: SF-539 CNS
[8] = system: K-562 leukemia
[9] = system: SK-MEL-28 melanoma
[10] = system: MDA-N

SMILES: C=CCNc1nc(O)c(/C=C2\C=Nc3ncccc32)s1
- GI50 [1]: 2.1 µM
- TGI [1]: 5.27 µM
- GI50 [2]: 0.725 µM
- TGI [2]: 4.85 µM
- GI50 [3]: 1.84 µM
- TGI [3]: 5.77 µM
- GI50 [4]: 2.21 µM
- TGI [4]: 21.6 µM
- GI50 [5]: 2.32 µM
- TGI [5]: 7.29 µM
- GI50 [6]: 2.03 µM
- TGI [6]: 9.66 µM
- GI50 [7]: 0.524 µM
- TGI [7]: 2.06 µM
- GI50 [8]: 4.26 µM
- TGI [8]: > 100 µM
- GI50 [9]: 2.52 µM
- TGI [9]: 9.14 µM

SMILES: Nc1nc2c(c(-c3ccccc3Cl)n1)COC/C2=C\c1ccccc1Cl
- TGI [10]: 24.1 µM
- TGI [1]: 25.5 µM
- TGI [2]: 31 µM
- TGI [3]: 32.2 µM
- TGI [4]: 32.6 µM
- TGI [5]: 29.8 µM
- TGI [6]: 51 µM
- TGI [7]: 34.4 µM
- TGI [8]: 32 µM

SMILES: NC(=S)Nc1ccc2c(c1)oc1ccccc12
- TGI [10]: > 100 µM
- TGI [1]: > 100 µM
- TGI [2]: > 100 µM
- TGI [3]: > 100 µM
- TGI [4]: > 100 µM
- TGI [5]: > 100 µM
- TGI [6]: > 100 µM
- TGI [8]: > 100 µM
- TGI [9]: > 100 µM

SMILES: COC1=CC(=O)N(C(=O)[C@@H](OC(=O)[C@@H](C)N(C)C(=O)[C@@H]2CCCN2C(=O)[C@H](C(C)C)N(C)C(=O)[C@@H](NC(=O)[C@H](C(C)C)N(Cc2ccccc2)Cc2ccccc2)C(C)C)C(C)C)[C@H]1Cc1ccccc1 (Bn2Val-V[NMeV]P[dNMeA]-X28)
- TGI [10]: > 100 µM
- TGI [2]: > 100 µM
- TGI [3]: > 100 µM
- TGI [4]: > 100 µM
- TGI [5]: > 100 µM
- TGI [6]: > 100 µM
- TGI [7]: > 100 µM
- TGI [8]: > 100 µM
- TGI [9]: > 100 µM

SMILES: CNC(=O)c1cc2nc3ccccc3c(=O)n2c2ccccc12
- TGI [1]: > 10 µM
- TGI [2]: > 10 µM
- TGI [3]: > 10 µM
- TGI [4]: > 10 µM
- TGI [5]: > 10 µM
- TGI [6]: > 10 µM
- TGI [7]: > 10 µM
- TGI [8]: > 10 µM
- TGI [9]: > 10 µM

SMILES: C[C@@H](NC(=O)[C@@H]1C[C@]1(C)CO)c1cccc2ccccc12
- TGI [10]: > 100 µM
- TGI [3]: > 100 µM
- TGI [4]: > 100 µM
- TGI [5]: > 100 µM
- TGI [6]: > 100 µM
- TGI [8]: > 100 µM
- TGI [9]: > 100 µM

SMILES: CCCc1n[nH]c(=O)n1N1C(=O)C=CC1=O
- TGI [10]: > 100 µM
- TGI [2]: > 100 µM
- TGI [3]: > 100 µM
- TGI [4]: > 100 µM
- TGI [7]: > 100 µM
- TGI [8]: > 100 µM

SMILES: CCOC(=O)C1(C#N)C2(C#N)C(N)=NC(ON=C(C)C)(ON=C(C)C)C12C#N (stereo not given)
- TGI [10]: > 100 µM
- TGI [1]: > 100 µM
- TGI [2]: > 100 µM
- TGI [3]: > 100 µM
- TGI [4]: > 100 µM
- TGI [5]: > 100 µM
- TGI [6]: > 100 µM
- TGI [8]: > 100 µM
- TGI [9]: > 100 µM

SMILES: Clc1ccc2nc3n[nH]c(Cl)c3nc2c1
- TGI [10]: > 100 µM
- TGI [3]: > 100 µM
- TGI [4]: > 100 µM
- TGI [5]: > 100 µM
- TGI [6]: 63.6 µM
- TGI [7]: > 100 µM
- TGI [8]: > 100 µM
- TGI [9]: > 100 µM

SMILES: O=C(O)CN1CCCC(Cc2c[nH]c3ccccc23)C1 (stereo not given)
- TGI [10]: > 100 µM
- TGI [3]: > 100 µM
- TGI [4]: > 100 µM
- TGI [6]: > 100 µM
- TGI [7]: > 100 µM
- TGI [8]: > 100 µM
- TGI [9]: > 100 µM

SMILES: C=C1C(=O)[C@]23C[C@H]1C[C@@H](O)[C@H]2[C@]1(COC3=O)[C@@H](OC(C)=O)CC[C@@](C)(COC(C)=O)[C@H]1C=O
- TGI [10]: > 50 µM
- TGI [1]: 16.6 µM
- TGI [2]: 14.6 µM
- TGI [3]: > 50 µM
- TGI [4]: > 50 µM
- TGI [5]: > 50 µM
- TGI [6]: > 50 µM
- TGI [8]: 14.1 µM
- TGI [9]: > 50 µM

SMILES: C/C=C/c1cc2c(c(=O)o1)C(=O)[C@@H](O)[C@H](C)O2
- TGI [1]: 54.4 µM
- TGI [2]: 20.4 µM
- TGI [3]: 60.8 µM
- TGI [5]: 46.1 µM
- TGI [7]: 33.6 µM
- TGI [8]: > 100 µM
- TGI [9]: 29.5 µM

SMILES: O=C(/C=C/c1ccc2c(c1)OCO2)NCCc1ccco1
- TGI [10]: > 100 µM
- TGI [2]: 79.7 µM
- TGI [3]: > 100 µM
- TGI [4]: > 100 µM
- TGI [5]: > 100 µM
- TGI [6]: > 100 µM
- TGI [7]: > 100 µM
- TGI [8]: > 100 µM
- TGI [9]: > 100 µM

SMILES: COC(=O)c1ccccc1NC(=S)NN(C)C
- TGI [10]: > 100 µM
- TGI [1]: > 100 µM
- TGI [2]: > 100 µM
- TGI [4]: > 100 µM
- TGI [5]: > 100 µM
- TGI [6]: > 100 µM
- TGI [7]: > 100 µM
- TGI [8]: > 100 µM
- TGI [9]: > 100 µM

SMILES: O=C(NC12CC3CC(CC(C3)C1)C2)C(=O)c1c[nH]c2ccc(Br)cc12
- TGI [1]: > 100 µM
- TGI [2]: > 100 µM
- TGI [5]: 95.6 µM
- TGI [7]: 51.3 µM
- TGI [8]: 47.2 µM
- TGI [9]: > 100 µM

SMILES: COc1cc(NS(C)(=O)=O)ccc1NCc1cnc2ccc3[nH]cccc3c12
- TGI [1]: 18.3 µM
- TGI [2]: 39.9 µM
- TGI [3]: 55.6 µM
- TGI [4]: > 70.3 µM
- TGI [5]: > 89.1 µM
- TGI [6]: 47.5 µM
- TGI [7]: 42.2 µM
- TGI [8]: 41 µM
- TGI [9]: 60.9 µM

SMILES: Cc1nc2ccccc2c(=O)n1NC(=O)c1ccccc1[N+](=O)[O-]
- TGI [1]: > 100 µM
- TGI [2]: > 100 µM
- TGI [3]: > 100 µM
- TGI [4]: > 100 µM
- TGI [5]: > 100 µM
- TGI [6]: > 100 µM
- TGI [7]: > 100 µM
- TGI [8]: > 100 µM
- TGI [9]: > 100 µM

SMILES: Nc1ncnc2c1ncn2CCCC(c1ccccc1)P(=O)(O)O (stereo not given)
- TGI [1]: > 100 µM
- TGI [2]: > 100 µM
- TGI [5]: > 100 µM
- TGI [7]: > 100 µM
- TGI [9]: > 100 µM

SMILES: COc1cc(OCc2nc3cc(C(F)(F)F)ccc3nc2-c2ccccc2)cc(OC)c1OC
- TGI [1]: > 100 µM
- TGI [4]: > 100 µM
- TGI [5]: > 100 µM
- TGI [6]: > 100 µM
- TGI [7]: > 100 µM
- TGI [8]: > 100 µM
- TGI [9]: > 100 µM

SMILES: CCCCCCCCCCCCCCCCNCC(O)CN (stereo not given)
- TGI [1]: 4.93 µM
- TGI [2]: 33.2 µM
- TGI [3]: 33.4 µM
- TGI [5]: 36 µM
- TGI [7]: 4.72 µM
- TGI [8]: 3.35 µM
- TGI [9]: 25.8 µM

SMILES: C[C@]12C(=O)C=CCC1=CC[C@@H]1[C@@H]2[C@H]2CC3(O)C(=O)O[C@@]4(C)[C@H]5C[C@@]6(C)[C@@H]7[C@@]2(O)[C@]1(OC[C@H]6C(=O)O5)O[C@]734 (stereo not given in full)
- TGI [10]: > 100 µM
- TGI [1]: > 100 µM
- TGI [2]: 46.2 µM
- TGI [4]: > 100 µM
- TGI [5]: > 100 µM
- TGI [6]: > 100 µM
- TGI [7]: 42.9 µM
- TGI [8]: > 100 µM
- TGI [9]: > 100 µM

SMILES: Cn1cc(-c2nc(-c3c[nH]c4ccncc34)cs2)c2ccccc21
- GI50 [4]: 1.74 µM
- TGI [4]: 3.15 µM
- GI50 [6]: 1.93 µM
- TGI [6]: 4.4 µM
- GI50 [7]: 1.78 µM
- TGI [7]: 3.26 µM
- GI50 [9]: 1.71 µM
- TGI [9]: 3.14 µM
